{"source": "patent US20120128654A1", "about": "“Allantoin Administration for the Treatment of Neurodegenerative Disease and Neurotrauma” (UNIVERSITY OF CINCINNATI, priority 2009, published 2012)", "key": {"[1]": {"system": "6-OHDA induced forelimb akinesia", "assay": "Cylinder testing for forelimb akinesia after intrastriatal 6-OHDA", "assay_type": "in vivo, Sprague Dawley rats", "conditions": "cylinder test, s.c. pellets implanted 3 days prior to intrastriatal 6-OHDA, four and six weeks post lesion, vs control", "excerpt": "Continuous s.c. delivery of INO, KO and ALL was achieved by implanting matrix-driven pellets into the s.c. space. Animals were anesthetized with isofluorane and prepared for surgery using sterile procedures. A small incision was made posterior to the scapula and the pellet was placed in the subscapular space contralateral to the incision. This placement technique prevents migration of the pellet towards the incision, thereby reducing the incidents of rejection. Finally, the incision was closed using aseptic procedures. To determine the roles of UA and allantoin in inosine-mediated neuroprotection, animals were treated with the urate oxidase inhibitor KO. This approach has been widely used to prevent the enzymatic metabolism of UA to allantoin in other rodent models of disease.\nRats were anesthetized prior to surgery with Equi-Thesin (0.3 ml/100 g body weight i.p.; chloral hydrate 42.5 mg/ml+sodium pentobarbital 9.72 mg/ml), their heads shaved, and then they were placed in a stereotaxic frame. Their skin was swabbed with Betadyne followed by 70% ETOH. The scalp was then opened to expose the skull. Two 1 mm holes were drilled into the skull and rats were injected in two sites in the striatum with 6-OHDA (MP Biomedicals, Solon, Ohio; 5 μg/μl 6-OHDA in 0.2% ascorbic acid, 0.9% saline solution). […]\nNon-drugged, spontaneous use of the forepaws was measured in rats as described by Schallert (Schallert, T., Behavioral tests for preclinical intervention assessment, NeuroRx 3:497-504 (2006)) prior to pellet and intrastriatal 6-OHDA and at both four weeks and six weeks after 6-OHDA. […] Videotapes were analyzed by a rater blinded to treatment. The number of times the rat used its left, right, or both paws for weight bearing in a given trial was determined and noted. […]\nIn the first experiment, rats were divided into four different groups INO (n=6), INO/potassium oxonate (KO blocks conversion of UA to ALL) (n=6), ALL (n=6), and sham pellet implantation. […] In experiment 1, rats were assessed for forelimb akinesia prior to, and […] and 6 weeks after intrastriatal 6-OHDA infusion. […]"}, "[2]": {"system": "nigral THir neurons", "assay": "Unbiased stereological counts of THir cells in the substantia nigra after striatal 6-OHDA", "assay_type": "in vivo, Sprague Dawley rats", "conditions": "for number of surviving THir neurons in the lesioned SN relative to the intact side: s.c. pellets 3 days prior to intrastriatal 6-OHDA, 6 weeks post-6-OHDA (experiment 1); for protection of nigral THir neurons against striatal 6-OHDA infusion: s.c. pellets, 6 weeks post-6-OHDA, vs control", "description": "Rats were anesthetized prior to surgery with Equi-Thesin (0.3 ml/100 g body weight i.p.; chloral hydrate 42.5 mg/ml+sodium pentobarbital 9.72 mg/ml), their heads shaved, and then they were placed in a stereotaxic frame. Their skin was swabbed with Betadyne followed by 70% ETOH. The scalp was then opened to expose the skull. Two 1 mm holes were drilled into the skull and rats were injected in two sites in the striatum with 6-OHDA (MP Biomedicals, Solon, Ohio; 5 μg/μl 6-OHDA in 0.2% ascorbic acid, 0.9% saline solution). The coordinates for these injections were AP −1.6 mm, ML +2.4 mm, DV −4.2 mm and AP −0.2 mm, +ML 2.6 mm, DV −7.0 mm. The needle was zeroed at the skull directly above the injection site in order to target the DV coordinate. For each injection, the needle was lowered slowly to the injection site and 1 minute elapsed before injection commenced, 6-OHDA was injected at 0.5 μl/minute and at the end of the injection the needle was held in place for an additional 2 minutes prior to retraction. The wound area was cleaned with Betadine solution and the scalp was closed with surgical wound clips. This lesion paradigm results in a progressive loss of TH phenotype and frank DA cell death.\nAnimals were deeply anesthetized (60 mg/kg, pentobarbital, i.p.) and perfused intracardially with warm 0.9% saline containing 1 ml/L 10,000 USP heparin followed by ice-cold 0.9% saline. For immunoshistochemistry brains were removed, post fixed for 24 hours in 4% paraformaldehyde and transferred to 30% sucrose in 0.1M PO4 buffer. For determination of purine levels brains were immediately removed and flash frozen in 3-methyl butane. Brains were stored at −80° C. until analysis.\nBrains were frozen on dry ice and sectioned at a 40 μm thickness using a sliding microtome. Every sixth section through the SN was processed for labeling with antisera against TH. Following blocking in 10% normal goat serum, tissue was incubated in primary antisera directed against TH (Chemicon MAB318, mouse anti TH 1:4,000) overnight at room temperature. Following primary incubation, sections were incubated in biotinylated secondary antisera against mouse IgG (Chemicon AP124B, 1:400) followed by the Vector ABC detection kit employing horseradish peroxidase (Vector Laboratories, Burlingame, Calif.). Antibody labeling was visualized by exposure to 0.5 mg/ml 3,3′ diaminobenzidine (DAB) and 0.03% H2O2 in Tris buffer. Sections were mounted on subbed slides, dehydrated to xylene and coverslipped with Cytoseal (Richard-Allan Scientific, Waltham, Mass.).\nUnbiased stereological counts of THir cells were performed using a BX52 Olympus microscope (Olympus America Inc.) interfaced with Microbrightfield stereological software and a Microfire CCD camera (Optronics, Goleta, Calif.). Utilizing 2 μm guard zones and a 50 μm×50 μm counting frame a grid size of 112 μm×183 μm was employed to assure that all coefficient of error values were ≦0.10. Using the optical fractionator principle, the regions of interest were individually outlined under a low magnification (1.25×). Using a 60× magnification lens with a 1.4 N/A the section thickness was empirically determined by first bringing the top of the section into focus and then using Microbrightfield software to step through the z-axis in 1 μm increments until the very bottom of the section was in focus. […]"}}, "note": "“Also recorded” adds a separate entry of the source."}
{"smiles": "NC(=O)NC1NC(=O)NC1=O", "note": "(stereo not shown) [allantoin]", "values": [{"measurement": "forelimb akinesia", "setting": "[1]", "value": "reduced at four and six weeks post-lesion; also recorded: significantly attenuated"}, {"measurement": "number of surviving THir neurons in the lesioned SN relative to the intact side", "setting": "[2]", "value": "61%±7.9%"}, {"measurement": "protection of nigral THir neurons against striatal 6-OHDA infusion", "setting": "[2]", "value": "significantly protected"}]}
{"smiles": "OC[C@H]1O[C@@H](n2cnc3c(O)ncnc32)[C@H](O)[C@@H]1O", "note": "[inosine]", "values": [{"measurement": "forelimb akinesia", "setting": "[1]", "value": "significantly attenuated"}, {"measurement": "forelimb akinesia", "setting": "[1]; listed as Inosine", "value": "significantly ameliorated forelimb akinesia six weeks post lesion"}, {"measurement": "number of surviving THir neurons in the lesioned SN relative to the intact side", "setting": "[2]", "value": "56%±9.0%"}, {"measurement": "protection of nigral THir neurons against striatal 6-OHDA infusion", "setting": "[2]", "value": "significantly protected"}]}
